In US20110288154A1, “RNA Interference Mediated Inhibition of Epithelial Sodium Channel (ENaC) Gene Expression Using Short Interfering Nucleic Acid (siNA)” (MERCK & CO., INC., priority 2008, published 2011):
pIC50: −log10 of the molar value. [invAb] = inverted abasic unit; d = 2'-deoxy (DNA); m = 2'-O-methyl; r = 2'-OH (RNA); f = 2'-fluoro

Tested on: ENaCα mRNA
Assay: Screening of ENaCα siNAs in human A549 cells (quantitative RT-PCR)
Type: cell-based
Set-up: Percent Reduction of the ENaCα mRNA relative to a non-targeting control siNA (NTC): concentration or dose not given beside the values
Conditions: for Avg ENaCα Expression / Mean (level of ENaCα expression normalized to the level of GAPDH) / Percent Reduction of the ENaCα mRNA relative to a non-targeting control siNA (NTC) / Avg GAPDH Expression: human A549 cells, n = 3; for Avg ENaCα Expression: 25 nM siNA with Lipofectamine 2000, harvested 24 hours post-transfection; for Mean (level of ENaCα expression normalized to the level of GAPDH) / Percent Reduction of the ENaCα mRNA relative to a non-targeting control siNA (NTC) / Avg GAPDH Expression: 24 hours post-transfection; for Avg GAPDH Expression: housekeeping gene used for normalisation
Experimental: siNA constructs (Table 1b) may be tested for efficacy in reducing ENaC RNA expression in, for example, A549 human lung carcinoma cells. A549 (human; ATCC cat# CCL-185) cells were cultured at 37° C. in the presence of 5% CO2 and grown in Ham's F12K medium with 2 mM L-glutamine adjusted to contain 1.5 g/L sodium bicarbonate and supplemented with fetal bovine serum at a final concentration of 10% and 100 U/mL penicillin. The A549 cells were plated approximately 24 hours before transfection in 96-well plates at 7,500 cells/well, 100 μl/well. After 24 hours complexes containing siNA and Lipofectamine 2000 (Invitrogen) were created as follows: a solution of Lipofectamine 2000 in OPTI-MEM was prepared containing Lipofectamine 2000 at a final concentration of 14 μg/ml. In parallel, solutions of the siNAs were prepared in OPTI-MEM at a final concentration of 150 nM. After both solutions were incubated at 20° C. for 20 minutes an equal volume of the siNA solutions and the Lipofectamine 2000 solution were added together for each of the siNAs. The resultant solution has the siNAs at a final concentration of 75 nM and Lipofectamine 2000 at a final concentration of 7 μg/ml. This solution was incubated at 20° C. for 20 minutes. After incubation 50 μl of the solution were added to each of the wells (in triplicate). The final concentration of siNA in each well was 25 nM and the final concentration of Lipofectamine 2000 in each well was 2.33 μg/ml. […] Dose response curves were determined in a similar manner with each concentration being done in triplicate and maintaining a constant amount of Lipofectamine 2000 in each transfection.
RNA was extracted from 96-well plates using the Invitek Invisorb RNA Cell HTS 96 Kit/C (Cat# 70619000) with a slightly modified protocol. The details of the protocol for isolating RNA from each plate are described as follows:
1) Aspirate media with rake 2) Add 150 ul/well Lysis buffer 3) Place on plate shaker for 1 minute 4) Place DNA binding plate on top of 0.5 ml collection plate 5) Pipette 190 ul up and down twice and add to DNA binding plate 6) Cover plate 7) Centrifuge plates 4 minutes at 4000 RPM 8) Discard DNA binding plate 9) Place the RNA binding plate on top of 2 ml collection plate 10) Add 150 ul/well of Binding Buffer R to 0.5 ml collection plate 11) Move contents of 0.5 ml collection plate to RNA binding plate 12) Let incubate for 1 minute 13) Centrifuge plates 4 minutes at 4000 RPM 14) Add 600 ul/well of Wash Buffer R1 to RNA binding plate 15) Centrifuge plates 4 minutes at 4000 RPM 16) Dump wash buffer from 2 ml collection plate 17) Add 400 ul/well of Wash Buffer R2 to RNA binding plate 18) Centrifuge plates 4 minutes at 4000 RPM 19) Add 400 ul/well of Wash Buffer R2 to RNA binding plate 20) Centrifuge plates 10 minutes at 4000 RPM 21) Dump wash buffer from 2 ml collection plate 22) Centrifuge plates 3 minutes at 4000 RPM 23) Discard 2 ml collection plate and place RNA binding plate on to microtiter plate 24) Add 100 ul/well of elution buffer to RNA binding plate 25) Incubate for 2 minutes 26) Seal plate 27) Centrifuge plates 3 minutes at 4000 RPM 28) Discard RNA binding plate 29) Cover microtiter plate for storage in −80 freezer
A series of probes and primers were used to detect the various mRNA transcripts of the genes of ENaCa and GAPDH in mouse, rat, and human cell lines. The assays were performed on an ABI 7500 instrument, according to the manufacturer's instructions. Within each experiment, the baseline was set in the exponential phase of the amplification curve, and based on the intersection point of the baselines with the amplification curve, a Ct value was assigned by the instrument. This Ct value was then assigned a QTY value based on the Standard Curve. The standard curve in the various experiments herein used 1 ng to 300 ng of RNA extracted from the same cell line used for the experimental transfections. […]

Substance | Avg ENaCα Expression | Mean (level of ENaCα expression normalized to the level of GAPDH) | Percent Reduction of the ENaCα mRNA relative to a non-targeting control siNA (NTC) | Avg GAPDH Expression | pIC50 (human cell line, dose response, read-out: Human IC50 (potency of ENaCα mRNA knockdown)) | Human % KD (efficacy of ENaCα mRNA knockdown) (human cell line, summary)
B GccAGuGGAGccuGuGGuu TTB / AACcAcAGGcuccAcuGGcUU (sense GCCAGUGGAGCCUGUGGUUTT; antisense AACCACAGGCUCCACUGGCUU; siRNA; sense: DNA at AGT, 2'-fluoro at CU, [invAb] at 5' end, 3' end, backbone not given here; antisense: sugars from the 5' end rrrfmfmmmffffmffmmfmm, backbone not given here) [Site 1757] | 66.53 | 0.66 | 0.0% | 101.11 | – | –
B uGGGcAGccAGuGGAGccu TTB / AGGcuccAcuGGcuGcccAUU (sense UGGGCAGCCAGUGGAGCCUTT; antisense AGGCUCCACUGGCUGCCCAUU; siRNA; sense: DNA at AGT, 2'-fluoro at CU, [invAb] at 5' end, 3' end, backbone not given here; antisense: sugars from the 5' end rrrffffmffmmffmfffmmm, backbone not given here) [Site 1751] | 63.35 | 0.49 | 25.4% | 128.83 | – | –
B cAcAAccGcAuGAAGAcGG TTB / CCGucuucAuGcGGuuGuGUU (chain 1 CACAACCGCAUGAAGACGGTT; chain 2 CCGUCUUCAUGCGGUUGUGUU; siRNA; chain 1: DNA at AGT, 2'-fluoro at CU, [invAb] at 5' end, 3' end, backbone not given here; chain 2: sugars from the 5' end rrrfffffmfmfmmffmfmmm, backbone not given here) [Site 334] | 58.30 | 1.49 | 4.5% | 42.86 | – | –
B AGuGuGGcuGuGccuAcAu TTB / AUGuAGGcAcAGccAcAcuUU (sense AGUGUGGCUGUGCCUACAUTT; antisense AUGUAGGCACAGCCACACUUU; siRNA; sense: DNA at AGT, 2'-fluoro at CU, [invAb] at 5' end, 3' end, backbone not given here; antisense: sugars from the 5' end rrrfmmmfmfmmffmfmffmm, backbone not given here) [Site 1382] | 72.49 | 1.30 | 16.6% | 57.29 | – | –
B cuGuGcAAccAGAAcAAAu TTB / AUUuGuucuGGuuGcAcAGUU (chain 1 CUGUGCAACCAGAACAAAUTT; chain 2 AUUUGUUCUGGUUGCACAGUU; siRNA; chain 1: DNA at AGT, 2'-fluoro at CU, [invAb] at 5' end, 3' end, backbone not given here; chain 2: sugars from the 5' end rrrfmffffmmffmfmfmmmm, backbone not given here) [Site 781] | 61.44 | 0.97 | 37.7% | 66.47 | – | –
B GuGuGGcuGuGccuAcAuc TTB / GAUGuAGGcAcAGccAcAcUU (sense GUGUGGCUGUGCCUACAUCTT; antisense GAUGUAGGCACAGCCACACUU; siRNA; B caps on sense ends, letter-case modifications not given here, further chemistry not given here) [Site 1383] | 40.44 | 0.78 | 49.8% | 52.36 | 9.39 | 50-70%
B GcAuGAAGAcGGccuucuG TTB / CAGAAGGccGuCuucAuGcUU (chain 1 GCAUGAAGACGGCCUUCUGTT; chain 2 CAGAAGGCCGUCUUCAUGCUU; siRNA; chain 1: DNA at AGT, 2'-fluoro at CU, [invAb] at 5' end, 3' end, backbone not given here; chain 2: sugars from the 5' end rrrmmmmffmfmfffmfmfmm, backbone not given here) [Site 341] | 62.42 | 1.62 | −4.3% | 48.12 | – | –
B AAccuGGGcAGccAGuGGA TTB / UCCAcuGGcuGcccAGGuuUU (sense AACCUGGGCAGCCAGUGGATT; antisense UCCACUGGCUGCCCAGGUUUU; siRNA; sense: sugars from the 5' end ddfffdddfddffddfddrdd, [invAb] at 5' end, 3' end, backbone not given here; antisense: sugars from the 5' end rrrmffmmffmfffmmmffmm, backbone not given here) [Site 1747] | 75.36 | 0.58 | 12.3% | 130.33 | – | –
B AGccAGuGGAGccuGuGGu TTB / ACCAcAGGcuccAcuGGcuUU (sense AGCCAGUGGAGCCUGUGGUTT; antisense ACCACAGGCUCCACUGGCUUU; siRNA; sense: DNA at AGT, 2'-fluoro at CU, [invAb] at 5' end, 3' end, backbone not given here; antisense: sugars from the 5' end rrrmfmmmffffmffmmffmm, backbone not given here) [Site 1756] | 73.20 | 0.71 | −8.2% | 102.64 | – | –
B cGcAuGAAGAcGGccuucu TTB / AGAAGGccGucuucAuGcGUU (chain 1 CGCAUGAAGACGGCCUUCUTT; chain 2 AGAAGGCCGUCUUCAUGCGUU; siRNA; chain 1: DNA at AGT, 2'-fluoro at CU, [invAb] at 5' end, 3' end, backbone not given here; chain 2: sugars from the 5' end rrrmmmffmfffffmfmfmmm, backbone not given here) [Site 340] | 84.94 | 1.40 | 9.9% | 63.09 | – | –
B uGuccAAccuGGGcAGccA TTB / UGGcuGcccAGGuuGGAcAUU (sense UGUCCAACCUGGGCAGCCATT; antisense UGGCUGCCCAGGUUGGACAUU; siRNA; sense: DNA at AGT, 2'-fluoro at CU, [invAb] at 5' end, 3' end, backbone not given here; antisense: sugars from the 5' end rrrffmfffmmmffmmmfmmm, backbone not given here) [Site 1742] | 58.12 | 0.53 | 19.7% | 109.65 | – | –
